From ChEMBL document CHEMBL1201862, “PubChem BioAssay data set” (2004) come the findings set out here.

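Following 48 hours of exposure in 96-well plates, responses at five concentrations were used to interpolate endpoints linearly. GI50: concentration for 50% inhibition of growth.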 Activity calls are given as the source filed them. Rule as the data show it: active = GI50 up to about 1.1 µM and inactive = higher.

Some test systems named below: MDA-MB-231; OVCAR-5; RXF 393; SK-OV-3; MDA-MB-435; HOP-92; SF-268; A498; NCI/ADR-RES; IGROV-1; UO-31; HCT-15; MOLT-4; NCI-H522; SF-295; UACC-257; M14; HL-60; NCI-H460; SK-MEL-5.
What all share (assay): DTP human tumour cell line panel, 48 h

Broadly, the GI50 is the concentration at which growth is held to half of that of the control. As for `S=C1N=C2C(=N1)n1c3c(c4ccccc41)CCCC23` (stereo not given), the GI50 in the experiment with MDA-MB-231 was 66.4 µM (inactive); in the experiment on OVCAR-5 it was > 100 µM (inactive); in the experiment with RXF 393, > 100 µM (inactive); in the experiment with SK-OV-3, > 100 µM (inactive); with MDA-MB-435, 55.7 µM (inactive); in the experiment on HOP-92, > 100 µM (inactive). Besides, the GI50 is 49 µM (inactive) in the experiment with SF-268; > 100 µM (inactive) with A498; 62.4 µM (inactive) in the experiment on NCI/ADR-RES; 32.6 µM (inactive) in the experiment on IGROV-1; 60.5 µM (inactive) in the experiment on UO-31; 46.3 µM in the experiment on HCT-15. Further, the GI50 with MOLT-4 is 36.6 µM (inactive); in the experiment with NCI-H522, 22.1 µM (inactive); in the experiment on SF-295 it was 38.6 µM (inactive); in the experiment on UACC-257, 47.4 µM (inactive); with M14, > 100 µM (inactive); with HL-60, 55.8 µM (inactive). Further, the GI50 was 38.6 µM (inactive) in the experiment on NCI-H460 and 36.8 µM (inactive) with SK-MEL-5.

Take `O=c1oc2cc(O)ccc2c(O)c1C(c1ccccc1F)c1c(O)c2ccc(O)cc2oc1=O`: the GI50 in the experiment on MDA-MB-231 is 95.7 µM (inactive); in the experiment on OVCAR-5, > 100 µM (inactive); in the experiment on RXF 393, 39.7 µM (inactive); with SK-OV-3, > 100 µM (inactive); in the experiment on MDA-MB-435, 43.8 µM (inactive); in the experiment on HOP-92, 65.2 µM (inactive). Moreover, the GI50 in the experiment with SF-268 is 78.2 µM (inactive); with A498, > 100 µM (inactive); in the experiment on NCI/ADR-RES, > 100 µM (inactive); in the experiment with IGROV-1, > 100 µM (inactive); in the experiment on UO-31 it was > 100 µM (inactive); in the experiment with HCT-15 it was 31 µM. Also, the GI50 is 45.8 µM (inactive) in the experiment on MOLT-4; > 100 µM (inactive) in the experiment with NCI-H522; > 100 µM (inactive) in the experiment with SF-295; > 100 µM (inactive) in the experiment with UACC-257; > 100 µM (inactive) in the experiment with M14; 17.9 µM (inactive) with HL-60. Further, the GI50 is > 100 µM (inactive) with NCI-H460 and 28.4 µM (inactive) in the experiment with SK-MEL-5.
